The record followed here is publication PMC9822021, “Biological Activity of Amidino-Substituted Imidazo [4,5-b]pyridines” (Molecules, 2022).

The IC50 is the concentration needed to halve the response being measured. As usually defined, the EC50 is the concentration that produces a half-maximal response. Higher therefore signals a need for much substance.

A value given as a limit tells only on which side of the number the result lay.

One data set has as its system K-562 chronic myeloid leukemia cells. The experiment in a line: In vitro antiproliferative activity, MTS proliferation assay. The class given is cell-based. To be noted: Homo sapiens, K562, 72 h. From the text:
(§1) Human cancer cell lines used in this manuscript, namely Capan-1, HCT-116, NCI-H460, LN-229, HL-60, K-562, Z-138, SW620, PC3 and HeLa, were acquired from the American Type Culture Collection (ATCC, Manassas, VA, USA), while the DND-41 cell line was purchased from the Deutsche Sammlung von Mikroorganismen und Zellkulturen (DSMZ Leibniz-Institut, Germany). Culture media were purchased from Gibco Life Technologies, USA, and supplemented with 10% fetal bovine serum (HyClone, GE Healthcare Life Sciences, Chicago, IL, USA), except for the media for SW620, PC3 and HeLa cells, which were purchased from Sigma.
(§2) Adherent cell lines LN-229, HCT-116, NCI-H460 and Capan-1 cells were seeded at a density between 500 and 1500 cells per well in 384-well tissue culture plates (Greiner). […]. Cells were incubated for 72 h with compounds and were then analyzed using the CellTiter 96® AQueous One Solution Cell Proliferation Assay (MTS) reagent (Promega) according to the manufacturer’s instructions. Absorbance of the samples was measured at 490 nm using a SpectraMax Plus 384 (Molecular Devices), and OD values were used to calculate the 50% inhibitory concentration (IC50). Compounds were tested in two independent experiments. SW620, PC3 and HeLa cells were seeded in 96-well microtiter plates at 1 × 10^4 to 3 × 10^4 cells/mL, depending on the doubling times of the specific cell line. Test agents were then added in five 10-fold dilutions (10^−8 to 10^−4 M). Working dilutions were freshly prepared on the day of testing. After 72 h of incubation, the cell growth rate was evaluated using the MTT assay as described previously. Absorbance of the samples was measured at 570 nm, and OD values were used to calculate the 50% inhibitory concentration (IC50). Each test was performed in quadruplicate in at least two individual experiments.
(Tetrazolium assays rely on reduction of a dye to a coloured formazan, in cell work by metabolically active cells.)
The compound `Cl.N=C(N)c1ccc(-c2nc3ncc(Br)cc3[nH]2)cc1` [Compound 10, 4-(6-Bromo-1H-imidazo[4,5-b]pyridin-2-yl)benzimidamide Hydrochloride] showed an IC50 of more than 100 µM.

Another data set relates to NCI-H460 lung carcinoma cells. The data set is described as above. The class given is cell-based. To be noted: Homo sapiens, 72 h.
Description: as §1, §2
For `Cl.N=C(N)c1ccc(-c2nc3ncc(Br)cc3[nH]2)cc1` [Compound 10, 4-(6-Bromo-1H-imidazo[4,5-b]pyridin-2-yl)benzimidamide Hydrochloride], the half-maximal inhibitory concentration (IC50) is more than 100 µM.

Another data set concerns HCT-116 colorectal carcinoma cells. The description is as above. To be noted: Homo sapiens, 72 h. Type of data set: cell-based.
Description: as §1, §2
`Cl.N=C(N)c1ccc(-c2nc3ncc(Br)cc3[nH]2)cc1` [Compound 10, 4-(6-Bromo-1H-imidazo[4,5-b]pyridin-2-yl)benzimidamide Hydrochloride] registered an IC50 of more than 100 µM.

A further data set concerns Zika mr766. The experiment in a line: Antiviral CPE reduction assay. The class given is cell-based. To be noted: Zika virus, Huh-7, Huh7 cells.
Take `Cl.N=C(N)c1ccc(-c2nc3ncc(Br)cc3[nH]2)cc1` [Compound 10, 4-(6-Bromo-1H-imidazo[4,5-b]pyridin-2-yl)benzimidamide Hydrochloride]: the concentration giving a half-maximal response (EC50) was more than 100 µM.

Test system in the next data set: not listed separately
In words: in vitro. To be noted: human.
Take `Cl.N=C(N)c1ccc(-c2nc3ncc(Br)cc3[nH]2)cc1` [Compound 10, 4-(6-Bromo-1H-imidazo[4,5-b]pyridin-2-yl)benzimidamide Hydrochloride]: the CC50 is more than 100 µM.

A further data set has as its system RSV A Long. The experiment in a line: Antiviral CPE reduction assay. Type of data set: cell-based, respiratory syncytial virus A. To be noted: human respiratory syncytial virus; CPE reduction, HEL 299 cells.
With `Cl.N=C(N)c1ccc(-c2nc3ncc(Br)cc3[nH]2)cc1` [Compound 10, 4-(6-Bromo-1H-imidazo[4,5-b]pyridin-2-yl)benzimidamide Hydrochloride], the 50% effective concentration (EC50) stood at 86.9 ± 18.6 µM.

The test system of a further data set is HeLa cervical carcinoma cells. The experiment in a line: In vitro antiproliferative activity, MTT assay. The class given is cell-based. To be noted: Homo sapiens, 72 h.
Description: as §1, §2
`Cl.N=C(N)c1ccc(-c2nc3ncc(Br)cc3[nH]2)cc1` [Compound 10, 4-(6-Bromo-1H-imidazo[4,5-b]pyridin-2-yl)benzimidamide Hydrochloride] returned an IC50 of 1.3 ± 0.26 µM.

In a further data set the test system is PC3 prostate carcinoma cells. In words: In vitro antiproliferative activity, MTT assay. Type of data set: cell-based. To be noted: Homo sapiens, 72 h.
Description: as §1, §2
`Cl.N=C(N)c1ccc(-c2nc3ncc(Br)cc3[nH]2)cc1` [Compound 10, 4-(6-Bromo-1H-imidazo[4,5-b]pyridin-2-yl)benzimidamide Hydrochloride] showed an IC50 not below 100 µM.

Another data set deals with SW620 colon carcinoma cells. The experiment in a line: In vitro antiproliferative activity, MTT assay. Type of data set: cell-based. To be noted: Homo sapiens, SW-620, 72 h.
Description: as §1, §2
Regarding `Cl.N=C(N)c1ccc(-c2nc3ncc(Br)cc3[nH]2)cc1` [Compound 10, 4-(6-Bromo-1H-imidazo[4,5-b]pyridin-2-yl)benzimidamide Hydrochloride], the IC50 was 0.4 ± 0.1 µM.

The next data set deals with HCoV 229E. The experiment in a line: Antiviral CPE reduction assay. The class given is cell-based. To be noted: Human coronavirus 229E, HEL 299 cells.
`Cl.N=C(N)c1ccc(-c2nc3ncc(Br)cc3[nH]2)cc1` [Compound 10, 4-(6-Bromo-1H-imidazo[4,5-b]pyridin-2-yl)benzimidamide Hydrochloride] registered an EC50 of more than 100 µM.

The next data set concerns Influenza H3N2 (A/HK/7/87). The experiment in a line: Antiviral CPE reduction assay. To be noted: Influenza A virus, MDCK cells. The class given is cell-based.
`Cl.N=C(N)c1ccc(-c2nc3ncc(Br)cc3[nH]2)cc1` [Compound 10, 4-(6-Bromo-1H-imidazo[4,5-b]pyridin-2-yl)benzimidamide Hydrochloride] yielded a concentration giving a half-maximal response (EC50) of 79.2 ± 14.7 µM.

The subject of another data set is E. coli Efflux Del. The experiment in a line: microbe, parasite or virus in culture. To be noted: Escherichia coli, read-out: MIC E. coli Efflux Del. The class given is cell-based. As for the experimental part: (§3) Synthesized compounds were prepared as 10 mM DMSO solutions and tested in a final concentration range of 100–0.2 µM [34].
(§4) Broth microdilution testing was performed according to CLSI (Clinical Laboratory Standards Institute) guidelines. MIC (minimal inhibitory concentration) values were defined as the last tested concentration of the compound at which there was no visible growth of bacteria. Inoculums for each microorganism were prepared using the direct colony suspension method, where broth solutions that achieved turbidity equivalent to 0.5 McFarland standard were additionally diluted 100× with Ca-adjusted MH media (Becton Dickinson).
Regarding `Cl.N=C(N)c1ccc(-c2nc3ncc(Br)cc3[nH]2)cc1` [Compound 10, 4-(6-Bromo-1H-imidazo[4,5-b]pyridin-2-yl)benzimidamide Hydrochloride], the MIC was more than 64 µM.

For a further data set, the system named is S. aureus ATCC 29213. The experiment in a line: Antibacterial activity in vitro, broth microdilution. Type of data set: cell-based. To be noted: Staphylococcus aureus, ATCC29213; broth microdilution (CLSI), 16–24 h at 37 °C. As for the experimental part: as §3, §4
In the case of `Cl.N=C(N)c1ccc(-c2nc3ncc(Br)cc3[nH]2)cc1` [Compound 10, 4-(6-Bromo-1H-imidazo[4,5-b]pyridin-2-yl)benzimidamide Hydrochloride], the MIC was more than 64 µM.

The next data set concerns E. coli ATCC 25922. The data set is described as above. Type of data set: cell-based. To be noted: Escherichia coli, ATCC25922; broth microdilution (CLSI), 16–24 h at 37 °C. As to the method:
as §3, §4
Background: Dilution methods test growth across graded concentrations, often in twofold steps.
Take `Cl.N=C(N)c1ccc(-c2nc3ncc(Br)cc3[nH]2)cc1` [Compound 10, 4-(6-Bromo-1H-imidazo[4,5-b]pyridin-2-yl)benzimidamide Hydrochloride]: the MIC is more than 64 µM.

In another data set the test system is S. Pneumoniae ATCC 49619. The description is as above. To be noted: Streptococcus pneumoniae, ATCC49619; broth microdilution (CLSI), 16–24 h at 37 °C. The class given is cell-based. As to the method: as §3, §4
As for `Cl.N=C(N)c1ccc(-c2nc3ncc(Br)cc3[nH]2)cc1` [Compound 10, 4-(6-Bromo-1H-imidazo[4,5-b]pyridin-2-yl)benzimidamide Hydrochloride], the MIC is more than 64 µM.
